These results are taken from US6593357B1, “Pyrazole compositions useful as inhibitors of ERK” (Vertex Pharmaceuticals Incorporated, priority 2000, dated 2003).

The structures appear in SMILES notation.

By Ki is commonly meant the equilibrium dissociation constant of an inhibitor or competing ligand from its target.

One test deals with ERK2 (Homo sapiens, UniProt P28482). Kind of test: ERK2 inhibition, spectrophotometric coupled-enzyme assay. In kind it is biochemical. The conditions noted are these: ERK2 Inhibitory Activity (Ki class), activated ERK2 10 nM, 65 μM ATP, 30° C., pH 7.5.
Chain of ERK2 (P28482 whole entry): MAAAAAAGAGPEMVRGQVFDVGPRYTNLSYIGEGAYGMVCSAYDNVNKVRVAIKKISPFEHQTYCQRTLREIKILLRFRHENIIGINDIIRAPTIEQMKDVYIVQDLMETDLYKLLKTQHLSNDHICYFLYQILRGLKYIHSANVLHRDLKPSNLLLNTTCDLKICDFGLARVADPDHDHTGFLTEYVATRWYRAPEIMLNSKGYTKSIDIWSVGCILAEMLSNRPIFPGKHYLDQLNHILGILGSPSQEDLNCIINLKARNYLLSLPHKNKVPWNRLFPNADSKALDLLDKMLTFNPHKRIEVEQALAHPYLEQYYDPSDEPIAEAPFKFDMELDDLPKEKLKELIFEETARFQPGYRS
Regarding `CCN1CCCC1CNC(=O)c1cc(-c2n[nH]cc2-c2cccc(Cl)c2)c[nH]1` (centres unmarked) [II-286], the Ki was more than 5000 nM.
For `O=C(NC1c2ccccc2CC1O)c1cc(-c2[nH]ncc2-c2cccc(Cl)c2)c[nH]1` (centres unmarked) [II-155], the Ki was in the range of 1000 to 5000 nM.

Staying with this test, now noted: activated ERK2 10 nM, 65 μM ATP, 30° C., pH 7.5; read-out: ERK2 Inhibitory Activity (Ki class).
With `CCOC(=O)c1cc(-c2[nH]ncc2-c2ccc([N+](=O)[O-])cc2)c[nH]1` [II-165], the Ki is more than 5000 nM.
As for `O=C(NCc1ccccc1)c1cc(-c2n[nH]cc2-c2ccccc2)c[nH]1` [II-5, 4-(4-phenyl-1H-pyrazole-3-yl)-1H-pyrrole-2-carboxylic acid benzylamide], the Ki is less than 1000 nM.
On to `CN(Cc1ccccc1)C(=O)c1cc(-c2[nH]ncc2-c2cccc(Br)c2)c[nH]1` [II-83], for which the Ki is less than 1000 nM.
As to `CCN(C)C(=O)c1cc(-c2[nH]ncc2-c2cccc(OC)c2)c[nH]1` [II-292], the Ki was more than 5000 nM.
On the same count and under the same terms, the same measure for `CN1CCN(C(=O)c2cc(-c3[nH]ncc3-c3ccccc3)c[nH]2)CC1` [II-21]: more than 5000 nM; for `O=C(c1cc(-c2[nH]ncc2-c2cccc(Br)c2)c[nH]1)N(CCCO)Cc1ccccc1` [II-139]: 1000 to 5000 nM; for `O=C(N[C@@H](CO)Cc1cnc[nH]1)c1cc(-c2[nH]ncc2-c2cccc(Br)c2)c[nH]1` [II-294]: more than 5000 nM.
The same measure, in the same setting: the same measure for `CCC(NC(=O)c1cc(-c2[nH]ncc2-c2cccc(Br)c2)c[nH]1)c1ccccc1` (centres unmarked) [II-62]: less than 1000 nM; for `O=C(NCc1cccnc1)c1cc(-c2[nH]ncc2-c2ccccc2)c[nH]1` [II-18]: less than 1000 nM.
On the same count and under the same terms, under `O=C(N[C@@H](CO)Cc1ccccc1)c1cc(-c2[nH]ncc2-c2cccc(Br)c2)c[nH]1` [II-91] stands less than 1000 nM; under `CCOC(=O)c1cc(-c2[nH]ncc2-c2cccc([N+](=O)[O-])c2)c[nH]1` [II-148], 1000 to 5000 nM.
As to `O=C(NC(CO)c1ccccc1)c1cc(-c2[nH]ncc2-c2cccc(C(F)(F)F)c2)c[nH]1` (centres unmarked) [II-49], the Ki is less than 1000 nM.
Still for that read-out and setting: under `COc1ccc(OC)c(CNC(=O)c2cc(-c3[nH]ncc3-c3cccc(Br)c3)c[nH]2)c1` [II-124] stands 1000 to 5000 nM; under `O=C(NC(CCO)c1ccccc1)c1cc(-c2[nH]ncc2-c2cccc(Br)c2)c[nH]1` (centres unmarked) [II-86], less than 1000 nM; under `O=C(NCC1CCCO1)c1cc(-c2[nH]ncc2-c2ccc(F)c(F)c2)c[nH]1` (centres unmarked) [II-120], 1000 to 5000 nM.
The same measure, in the same setting: under `CCOC(=O)c1cc(-c2[nH]ncc2-c2cccc(N)c2)c[nH]1` [II-9] stands more than 5000 nM; under `COc1cccc(N2CCN(C(=O)c3cc(-c4[nH]ncc4-c4cccc(Br)c4)c[nH]3)CC2)c1` [II-122], 1000 to 5000 nM.
As for `O=C(NCc1ccccc1)c1cc(-c2[nH]ncc2-c2cccc([N+](=O)[O-])c2)c[nH]1` [II-79], the Ki is less than 1000 nM.
Still for that read-out and setting: under `COc1cccc(-c2cn[nH]c2-c2c[nH]c(C(=O)N3CCOCC3)c2)c1` [II-135] stands 1000 to 5000 nM.
Still for that read-out and setting: under `Cc1ccc(N2CCN(C(=O)c3cc(-c4[nH]ncc4-c4cccc(Br)c4)c[nH]3)CC2)cc1` [II-126] stands 1000 to 5000 nM; under `O=C(NCc1cccnc1)c1cc(-c2[nH]ncc2-c2ccc(F)c(F)c2)c[nH]1` [II-116], 1000 to 5000 nM; under `CC(C)(C)OC(=O)N1CCCC(CNC(=O)c2cc(-c3[nH]ncc3-c3cccc(Cl)c3F)c[nH]2)C1` (centres unmarked) [II-121], 1000 to 5000 nM.
On to `CCOC(=O)c1cc(-c2[nH]ncc2-c2ccc(Cl)cc2)c[nH]1` [II-7], for which the inhibition constant (Ki) is more than 5000 nM.
The same measure, in the same setting: the same measure for `CC(C)NC(=O)c1cc(-c2[nH]ncc2-c2ccccc2)c[nH]1` [II-20]: less than 1000 nM.
Turning to `O=C(c1cc(-c2[nH]ncc2-c2cccc(Br)c2)c[nH]1)N(Cc1ccccc1)[C@H](CO)c1ccccc1` [II-288], the inhibitory constant (Ki) is 1000 to 5000 nM.
On the same count and under the same terms, the same measure for `O=C(NCc1ccccc1)c1cc(-c2[nH]ncc2-c2ccc(F)cc2)c[nH]1` [II-111]: less than 1000 nM; for `O=C(NCc1cccnc1)c1cc(-c2[nH]ncc2-c2ccc(Cl)c(Cl)c2)c[nH]1` [II-74]: less than 1000 nM.
As to `CC1CCN(C(=O)c2cc(-c3[nH]ncc3-c3ccccc3)c[nH]2)CC1` [II-166], the Ki was more than 5000 nM.
On to `NNC(=O)c1cc(-c2[nH]ncc2-c2cccc([N+](=O)[O-])c2)c[nH]1` [II-3], for which the inhibitory constant (Ki) is less than 1000 nM.
As to `O=C(NCc1ccccc1)c1cc(-c2[nH]ncc2-c2cc(I)c(O)c([N+](=O)[O-])c2)c[nH]1` [II-52], the Ki is less than 1000 nM.
With `O=C(c1cc(-c2[nH]ncc2-c2cccc(Cl)c2F)c[nH]1)N1CCOCC1` [II-129], the Ki is 1000 to 5000 nM.
The same measure, in the same setting: the same measure for `COc1cc(CNC(=O)c2cc(-c3[nH]ncc3-c3cccc(Br)c3)c[nH]2)cc(OC)c1` [II-68]: less than 1000 nM.
In the case of `CCOC(=O)c1cc(-c2[nH]ncc2-c2ccc(OC)cc2)c[nH]1` [II-8], the inhibition constant Ki was more than 5000 nM.
Turning to `COc1ccc(-c2cn[nH]c2-c2c[nH]c(C(=O)NCc3ccccc3)c2)cc1` [II-117], the inhibition constant (Ki) lay in the range of 1000 to 5000 nM.
Same read-out and setting: the same measure for `CC1CCN(C(=O)c2cc(-c3[nH]ncc3-c3cccc(Cl)c3)c[nH]2)CC1` [II-136]: 1000 to 5000 nM; for `O=C(NCC1CCCO1)c1cc(-c2[nH]ncc2-c2cc(Cl)cc(Cl)c2)c[nH]1` (centres unmarked) [II-78]: less than 1000 nM; for `CCOC(=O)c1cc(-c2[nH]ncc2-c2ccc(N)cc2)c[nH]1` [II-164]: more than 5000 nM.
Still for that read-out and setting: the same measure for `O=C(NCC1CCCO1)c1cc(-c2[nH]ncc2-c2ccc(F)c(Cl)c2)c[nH]1` (centres unmarked) [II-100]: less than 1000 nM.
Consider `CCOC(=O)c1cc(-c2[nH]ncc2-c2ccc(F)cc2)c[nH]1` [II-11], for which the inhibition constant (Ki) was more than 5000 nM.
On the same count and under the same terms, under `CCN(C)C(=O)c1cc(-c2[nH]ncc2-c2cccc(F)c2)c[nH]1` [II-291] stands more than 5000 nM; under `COc1ccccc1CNC(=O)c1cc(-c2[nH]ncc2-c2cccc(Br)c2)c[nH]1` [II-69], less than 1000 nM.
On to `O=C(NC(CCO)c1ccccc1)c1cc(-c2[nH]ncc2-c2cccc(Br)c2)c[nH]1` (centres unmarked) [II-59], for which the Ki is less than 1000 nM.
On to `O=C(c1cc(-c2[nH]ncc2-c2ccccc2)c[nH]1)N1CCOCC1` [II-19], for which the Ki is less than 1000 nM.
Same read-out and setting: the same measure for `O=C(NC(COc1ccccc1)c1ccc2c(c1)OCCO2)c1cc(-c2[nH]ncc2-c2cccc(Br)c2)c[nH]1` (centres unmarked) [II-290]: 1000 to 5000 nM; for `COc1cc2c(cc1OC)C(CO)N(C(=O)c1cc(-c3[nH]ncc3-c3cccc(Br)c3)c[nH]1)CC2` (centres unmarked) [II-105]: less than 1000 nM.
Same read-out and setting: under `O=C(NNc1cccc(C(F)(F)F)c1)c1cc(-c2[nH]ncc2-c2cccc(Br)c2)c[nH]1` [II-56] stands less than 1000 nM.
Take `O=C(NCc1cccnc1)c1cc(-c2[nH]ncc2-c2cccc(F)c2)c[nH]1` [II-119]: the Ki was 1000 to 5000 nM.
On the same count and under the same terms, under `Nc1ccc(CNC(=O)c2cc(-c3[nH]ncc3-c3cccc(Br)c3)c[nH]2)cc1` [II-109] stands less than 1000 nM.
Regarding `O=C(NCc1ccccc1)c1cc(-c2[nH]ncc2-c2cccc(O)c2)c[nH]1` [II-95], the Ki was less than 1000 nM.
Regarding `O=C(c1cc(-c2[nH]ncc2-c2cccc(Br)c2)c[nH]1)N1CCC(O)(c2ccc(Br)cc2)CC1` [II-123], the inhibitory constant (Ki) fell in the range of 1000 to 5000 nM.
Same read-out and setting: under `CCOC(=O)c1cc(-c2[nH]ncc2-c2cccc(Br)c2)c[nH]1` [II-157] stands 1000 to 5000 nM; under `COc1cccc(-c2cn[nH]c2-c2c[nH]c(C(=O)NCCN(C)C)c2)c1` [II-25], more than 5000 nM.
Same read-out and setting: under `O=C(c1cc(-c2[nH]ncc2-c2cccc(Br)c2)c[nH]1)N(CCCO)Cc1ccncc1` [II-156] stands 1000 to 5000 nM.
`O=C(c1cc(-c2[nH]ncc2-c2ccccc2)c[nH]1)N1CCCC1` [II-4]: the inhibition constant (Ki) was less than 1000 nM.
For the molecule `O=C(c1cc(-c2[nH]ncc2-c2ccc(Cl)c(Cl)c2)c[nH]1)N1CCOCC1` [II-127], the Ki fell in the range of 1000 to 5000 nM.
Still for that read-out and setting: the same measure for `O=C(NC(CO)(CO)CO)c1cc(-c2[nH]ncc2-c2cccc(Br)c2)c[nH]1` [II-295]: more than 5000 nM; for `CN(C)CCNC(=O)c1cc(-c2[nH]ncc2-c2ccccc2)c[nH]1` [II-297]: more than 5000 nM.
Still for that read-out and setting: the same measure for `COc1ccc(C[C@H](CO)NC(=O)c2cc(-c3[nH]ncc3-c3cccc(Br)c3)c[nH]2)cc1OC` [II-296]: more than 5000 nM; for `CNC(=O)c1cc(-c2[nH]ncc2-c2cccc(Br)c2)c[nH]1` [II-152]: 1000 to 5000 nM.
Regarding `CCOC(=O)c1cc(-c2[nH]ncc2-c2cccc(Cl)c2)c[nH]1` [II-151], the Ki fell in the range of 1000 to 5000 nM.
As for `O=C(NCCO)c1cc(-c2[nH]ncc2-c2cccc(Br)c2)c[nH]1` [II-130], the Ki was 1000 to 5000 nM.
As to `COc1cccc(-c2cn[nH]c2-c2c[nH]c(C(=O)N3CCOCC3)c2)c1` [II-27], the inhibitory constant (Ki) is less than 1000 nM.
On the same count and under the same terms, under `CCOC(=O)c1cc(-c2[nH]ncc2-c2ccccc2)c[nH]1` [II-2] stands more than 5000 nM.
For the molecule `O=C(NC(CO)c1ccccc1)c1cc(-c2[nH]ncc2-c2cc(I)c(O)c([N+](=O)[O-])c2)c[nH]1` (centres unmarked) [II-42], the Ki was less than 1000 nM.
Still for that read-out and setting: under `CC(C)ONC(=O)c1cc(-c2[nH]ncc2-c2cccc(Br)c2)c[nH]1` [II-161] stands more than 5000 nM; under `CC(C)NC(=O)c1cc(-c2[nH]ncc2-c2cccc(C(=O)O)c2)c[nH]1` [II-160], 1000 to 5000 nM.
The same measure, in the same setting: under `O=C(NCc1ccccc1)c1cc(-c2[nH]ncc2-c2cccc(Br)c2)c[nH]1` [II-299] stands more than 5000 nM; under `COc1cccc(-c2cn[nH]c2-c2c[nH]c(C(=O)N3CCN(C)CC3)c2)c1` [II-29], more than 5000 nM.
On to `Nc1cccc(-c2cn[nH]c2-c2c[nH]c(C(=O)NCc3ccccc3)c2)c1` [II-73], for which the Ki is less than 1000 nM.
Take `Nc1cc(-c2cn[nH]c2-c2c[nH]c(C(=O)NC(CO)c3ccccc3)c2)cc(I)c1O` (centres unmarked) [II-44]: the Ki was less than 1000 nM.
Same read-out and setting: the same measure for `NNC(=O)c1cc(-c2[nH]ncc2-c2cccc([N+](=O)[O-])c2)c[nH]1` [II-137]: 1000 to 5000 nM.
Same read-out and setting: the same measure for `Nc1cccc(-c2cn[nH]c2-c2c[nH]c(C(=O)NCc3ccccc3)c2)c1` [II-131]: 1000 to 5000 nM; for `Cc1cccc(-c2cn[nH]c2-c2c[nH]c(C(=O)NCc3ccccc3)c2)c1` [II-90]: less than 1000 nM; for `COc1cccc(-c2cn[nH]c2-c2c[nH]c(C(=O)N(C)C)c2)c1` [II-23]: less than 1000 nM.
Take `COc1ccc(-c2cn[nH]c2-c2c[nH]c(C(=O)NOCc3ccccc3)c2)cc1` [II-133]: the Ki was in the range of 1000 to 5000 nM.
